Experiments:
[1] = ^14C‐plasma, liver, and kidney distribution study with or without OATP inhibitors; type: in vivo, Crl:CD1(ICR) mice; conditions: for Kidney/plasma ratio of ^14C / Liver/plasma ratio of ^14C / ^14C‐concentration in liver: 2 h; for Liver/plasma ratio of ^14C‐concentration: oral or intraperitoneal co‐administration of DGX
Protocol: Crl:CD1(ICR) mice at the age of 7 weeks were purchased from Charles River Laboratories Japan, Inc., Hino Breeding Center. The mice at the age of 8 or 9 weeks were dosed after completing a 7‐day quarantine period and an additional 0‐ to 7‐day acclimatization period. All animal experiments were conducted in accordance with the Guidance for the Care and Use of Laboratory Animals in our laboratory, which corresponds to the Guidelines for Proper Conduct of Animal Experiments (Science Council of Japan). Animals were maintained under constant environmental conditions: room temperature, 21−25°C; relative humidity, 55% ±15%; ventilation, 10 air exchanges per hour; and artificial lighting, from 8:00 am to 8:00 pm. The animals were provided with pelleted diet and water ad libitum. […] All animals were euthanized by bleeding from the abdominal artery under anesthesia.
[^14C]Epyrifenacil was isotopically diluted with the unlabeled test compound to adjust the specific activity to 5.00 MBq/mg. After evaporation of the solvent under nitrogen gas flow, labeled material was suspended in 0.5% (w/v) methylcellulose solution at a concentration of 1 mg/5 ml by grinding in a mortar. The suspension was stored frozen until the start of dosing. The radiochemical purity of the dosing suspension was analyzed by radio‐HPLC and was confirmed to be >99%. […] These dosing suspensions were stored in a refrigerator until dosing commenced.
Three mice per sex at 8 weeks old were given a single oral dose of [^14C]epyrifenacil at 1 mg/kg with or without co‐administration of OATP inhibitors. […] At 2 h after administration of [^14C]epyifenacil, the animals were euthanized by whole blood collection from the abdominal aorta under anesthesia with isoflurane. The sampling time point was selected as the time around T max based on the result of the blood ^14C‐concentration study. Then, the liver and kidney were dissected out, and the amount of ^14C was measured. Aliquots of heparinized blood samples were separated into blood cells and plasma by centrifugation at 2000g for 10 min at 4°C. The total weight of the liver and kidney was determined for each animal. Two aliquots of plasma and tissue samples (approximately 0.05–0.1 g) were weighed in a glass vial, and the radioactivity was measured.

mouse Oatp1a4 = target: T1, mouse Oatp1a4 (Mus musculus, UniProt Q9EP96); conditions: inhibitor at 100 μM
T1 sequence (Q9EP96 1-670): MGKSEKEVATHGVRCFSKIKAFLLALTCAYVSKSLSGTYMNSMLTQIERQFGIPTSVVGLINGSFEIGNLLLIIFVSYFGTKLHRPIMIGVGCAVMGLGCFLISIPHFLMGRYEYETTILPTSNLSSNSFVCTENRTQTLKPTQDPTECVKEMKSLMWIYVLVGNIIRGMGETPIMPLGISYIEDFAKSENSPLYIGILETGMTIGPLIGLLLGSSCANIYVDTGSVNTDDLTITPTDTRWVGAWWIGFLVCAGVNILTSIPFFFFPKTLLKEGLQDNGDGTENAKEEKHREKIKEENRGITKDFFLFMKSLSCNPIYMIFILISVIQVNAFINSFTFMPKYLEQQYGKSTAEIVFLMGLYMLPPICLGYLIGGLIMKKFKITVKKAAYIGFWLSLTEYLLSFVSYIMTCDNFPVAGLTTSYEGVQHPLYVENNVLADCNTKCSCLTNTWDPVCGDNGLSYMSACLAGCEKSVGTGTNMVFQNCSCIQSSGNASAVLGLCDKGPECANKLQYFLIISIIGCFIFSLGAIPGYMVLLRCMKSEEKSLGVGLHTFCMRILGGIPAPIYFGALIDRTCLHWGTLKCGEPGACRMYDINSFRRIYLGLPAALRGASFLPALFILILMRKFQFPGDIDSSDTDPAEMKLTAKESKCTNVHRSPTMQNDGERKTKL
Protocol: 293FT cells were purchased from Thermo Fisher Scientific, Inc.. The cells were grown in Dulbecco's modified Eagle medium (supplemented with 4.5 g/L glucose and 2 mM L‐glutamine) at 37°C, 5% CO2, and 95% humidity. The cells were passaged 3 times per week by harvesting cells using trypsin and plating at a density of 1.0 × 10^4 cells/cm^2 in a 10 cm cell culture plate for maintenance culture. The 293FT cells were detached using trypsin and re‐seeded at a density of 2.5 × 10^4 cells/cm^2 in BioCoat™ Collagen I 6‐well plates (Corning Inc.) for transfection and then treated with 1.2 μg of plasmid vector and 3.2 μl of Lipofectamine™ 2000 Transfection Reagent (Thermo Fisher Scientific, Inc.) according to the manufacturer's instructions. After a 3‐h treatment, the transfection medium was replaced with a fresh cell culture medium and incubated at 37°C with 95% humidity and 5% CO2 until ready for the assay.
Transport experiments were conducted approximately 24 h post‐transfection. The experiments were initiated by aspirating culture medium and addition of pre‐warmed radiolabeled substrate solution (final 1.0% of acetonitrile or 0.9% of ethanol in phosphate‐buffered saline (PBS[−])) to each well. After a 10‐min incubation, cells were washed twice with 1 ml of ice‐cold PBS(−) and lysed with 700 μl of 1.0 M NaOH for 3 h or more at room temperature. The lysate was transferred to a 1.5‐ml tube, and neutralized with 350 μl of 2.0 M HCl and 350 μl of 2.0% sodium dodecyl sulfate (SDS) solution. From the lysate, 1.0 ml was transferred to a vial containing 10 ml of Emulsifier Scintillator Plus to measure the radioactivity in the LSC. The protein concentration of the cell lysate was also measured using a Pierce™ BCA Protein Assay Kit (Thermo Fisher Scientific, Inc.), which was used to normalize, according to the cell number, the radioactivity in the cell lysate extract. The protein assay was performed in duplicate. Each sample type was assayed in triplicate wells, and each run was performed twice. […] Each sample type was assayed in triplicate wells.

[2] = Female, epyrifenacil 1 mg/kg p.o. + Digoxin 100 mg/kg i.p.
[3] = Female, epyrifenacil 1 mg/kg p.o. + Digoxin 200 mg/kg p.o.
[4] = Female, epyrifenacil 1 mg/kg p.o. + Rifampicin 200 mg/kg p.o.
[5] = Female, epyrifenacil 1 mg/kg p.o., no inhibitor
[6] = Female, 2 h after epyrifenacil 1 mg/kg p.o. + Digoxin 100 mg/kg i.p.
[7] = Female, 2 h after epyrifenacil 1 mg/kg p.o. + Digoxin 100 mg/kg i.p., listed as [^14C]Epyrifenacil
[8] = Female, 2 h after epyrifenacil 1 mg/kg p.o. + Digoxin 200 mg/kg p.o.
[9] = Female, 2 h after epyrifenacil 1 mg/kg p.o. + Digoxin 200 mg/kg p.o., listed as [^14C]Epyrifenacil
[10] = Female, 2 h after epyrifenacil 1 mg/kg p.o. + Rifampicin 200 mg/kg p.o.
[11] = Female, 2 h after epyrifenacil 1 mg/kg p.o. + Rifampicin 200 mg/kg p.o., listed as [^14C]Epyrifenacil
[12] = Female, 2 h after epyrifenacil 1 mg/kg p.o., no inhibitor
[13] = Female, 2 h after epyrifenacil 1 mg/kg p.o., no inhibitor, listed as [^14C]Epyrifenacil
[14] = Male, epyrifenacil 1 mg/kg p.o. + Digoxin 100 mg/kg i.p.
[15] = Male, epyrifenacil 1 mg/kg p.o. + Digoxin 200 mg/kg p.o.
[16] = Male, epyrifenacil 1 mg/kg p.o. + Rifampicin 200 mg/kg p.o.
[17] = Male, epyrifenacil 1 mg/kg p.o., no inhibitor
[18] = Male, 2 h after epyrifenacil 1 mg/kg p.o. + Digoxin 100 mg/kg i.p.
[19] = Male, 2 h after epyrifenacil 1 mg/kg p.o. + Digoxin 100 mg/kg i.p., listed as [^14C]Epyrifenacil
[20] = Male, 2 h after epyrifenacil 1 mg/kg p.o. + Digoxin 200 mg/kg p.o.
[21] = Male, 2 h after epyrifenacil 1 mg/kg p.o. + Digoxin 200 mg/kg p.o., listed as [^14C]Epyrifenacil
[22] = Male, 2 h after epyrifenacil 1 mg/kg p.o. + Rifampicin 200 mg/kg p.o.
[23] = Male, 2 h after epyrifenacil 1 mg/kg p.o. + Rifampicin 200 mg/kg p.o., listed as [^14C]Epyrifenacil
[24] = Male, 2 h after epyrifenacil 1 mg/kg p.o., no inhibitor
[25] = Male, 2 h after epyrifenacil 1 mg/kg p.o., no inhibitor, listed as [^14C]Epyrifenacil

SMILES: CCOC(=O)COc1ncccc1Oc1cc(-n2c(=O)cc(C(F)(F)F)n(C)c2=O)c(F)cc1Cl [Epyrifenacil, ethyl[(3‐{2‐chloro‐4‐fluoro‐5‐[3‐methyl‐2,6‐dioxo‐4‐(trifluoromethyl)‐3,6‐dihydropyrimidin‐1(2H)‐yl]phenoxy}pyridin‐2‐yl)oxy]acetate]
- Kidney/plasma ratio of ^14C [1, 2]: (2.2)
- Liver/plasma ratio of ^14C [1, 2]: (41)
- Kidney/plasma ratio of ^14C [1, 3]: (1.6)
- Liver/plasma ratio of ^14C [1, 3]: (43)
- Liver/plasma ratio of ^14C ([1]; Female, epyrifenacil 1 mg/kg p.o. + Digoxin 200 mg/kg p.o., listed as [^14C]epyrifenacil): ca. 43
- Kidney/plasma ratio of ^14C [1, 4]: (0.60)
- Liver/plasma ratio of ^14C [1, 4]: (4.0)
- Liver/plasma ratio of ^14C ([1]; Female, epyrifenacil 1 mg/kg p.o. + Rifampicin 200 mg/kg p.o., listed as [^14C]epyrifenacil): ~4
- Kidney/plasma ratio of ^14C [1, 5]: (1.3)
- Liver/plasma ratio of ^14C [1, 5]: (35)
- Liver/plasma ratio of ^14C ([1]; Female, epyrifenacil 1 mg/kg p.o., no inhibitor, listed as [^14C]epyrifenacil): ~35
- ^14C‐Concentration, Kidney [1, 6]: 0.184 ± 0.0360 μg eq. of epyrifenacil/g tissue
- ^14C‐Concentration, Liver [1, 6]: 3.390 ± 1.9870 μg eq. of epyrifenacil/g tissue
- ^14C‐Concentration, Plasma [1, 6]: 0.082 ± 0.0574 μg eq. of epyrifenacil/g tissue
- ^14C‐Concentration, Kidney [1, 7]: 0.184 μg eq. of epyrifenacil/g tissue
- ^14C‐Concentration, Liver [1, 7]: 3.390 μg eq. of epyrifenacil/g tissue
- ^14C‐Concentration, Plasma [1, 7]: 0.082 μg eq. of epyrifenacil/g tissue
- ^14C‐Concentration, Kidney [1, 8]: 0.086 ± 0.0096 μg eq. of epyrifenacil/g tissue
- ^14C‐Concentration, Liver [1, 8]: 2.344 ± 0.4524 μg eq. of epyrifenacil/g tissue
- ^14C‐Concentration, Plasma [1, 8]: 0.054 ± 0.0118 μg eq. of epyrifenacil/g tissue
- ^14C‐Concentration, Kidney [1, 9]: 0.086 μg eq. of epyrifenacil/g tissue
- ^14C‐Concentration, Liver [1, 9]: 2.344 μg eq. of epyrifenacil/g tissue
- ^14C‐Concentration, Plasma [1, 9]: 0.054 μg eq. of epyrifenacil/g tissue
- ^14C‐Concentration, Kidney [1, 10]: 0.130 ± 0.0548 μg eq. of epyrifenacil/g tissue
- ^14C‐Concentration, Liver [1, 10]: 0.880 ± 0.4160 μg eq. of epyrifenacil/g tissue
- ^14C‐Concentration, Plasma [1, 10]: 0.217 ± 0.1551 μg eq. of epyrifenacil/g tissue
- ^14C‐Concentration, Kidney [1, 11]: 0.130 μg eq. of epyrifenacil/g tissue
- ^14C‐Concentration, Liver [1, 11]: 0.880 μg eq. of epyrifenacil/g tissue
- ^14C‐Concentration, Plasma [1, 11]: 0.217 μg eq. of epyrifenacil/g tissue
- ^14C‐Concentration, Kidney [1, 12]: 0.190 ± 0.0511 μg eq. of epyrifenacil/g tissue
- ^14C‐Concentration, Liver [1, 12]: 5.136 ± 1.1225 μg eq. of epyrifenacil/g tissue
- ^14C‐Concentration, Plasma [1, 12]: 0.147 ± 0.0642 μg eq. of epyrifenacil/g tissue
- ^14C‐Concentration, Kidney [1, 13]: 0.190 μg eq. of epyrifenacil/g tissue
- ^14C‐Concentration, Liver [1, 13]: 5.136 μg eq. of epyrifenacil/g tissue
- ^14C‐Concentration, Plasma [1, 13]: 0.147 μg eq. of epyrifenacil/g tissue
- Kidney/plasma ratio of ^14C [1, 14]: (1.7)
- Liver/plasma ratio of ^14C [1, 14]: (67)
- Kidney/plasma ratio of ^14C [1, 15]: (2.6)
- Liver/plasma ratio of ^14C [1, 15]: (97)
- Liver/plasma ratio of ^14C ([1]; Male, epyrifenacil 1 mg/kg p.o. + Digoxin 200 mg/kg p.o., listed as [^14C]epyrifenacil): ca. 97
- Kidney/plasma ratio of ^14C [1, 16]: (0.96)
- Liver/plasma ratio of ^14C [1, 16]: (11)
- Kidney/plasma ratio of ^14C [1, 17]: (1.3)
- Liver/plasma ratio of ^14C [1, 17]: (73)
- Liver/plasma ratio of ^14C ([1]; Male, epyrifenacil 1 mg/kg p.o., no inhibitor, listed as [^14C]epyrifenacil): ca. 73
- ^14C‐Concentration, Kidney [1, 18]: 0.140 ± 0.0527 μg eq. of epyrifenacil/g tissue
- ^14C‐Concentration, Liver [1, 18]: 5.527 ± 1.3453 μg eq. of epyrifenacil/g tissue
- ^14C‐Concentration, Plasma [1, 18]: 0.083 ± 0.0027 μg eq. of epyrifenacil/g tissue
- ^14C‐Concentration, Kidney [1, 19]: 0.140 μg eq. of epyrifenacil/g tissue
- ^14C‐Concentration, Liver [1, 19]: 5.527 μg eq. of epyrifenacil/g tissue
- ^14C‐Concentration, Plasma [1, 19]: 0.083 μg eq. of epyrifenacil/g tissue
- ^14C‐Concentration, Kidney [1, 20]: 0.044 ± 0.0051 μg eq. of epyrifenacil/g tissue
- ^14C‐Concentration, Liver [1, 20]: 1.647 ± 0.7217 μg eq. of epyrifenacil/g tissue
- ^14C‐Concentration, Plasma [1, 20]: 0.017 ± 0.0064 μg eq. of epyrifenacil/g tissue
- ^14C‐Concentration, Kidney [1, 21]: 0.044 μg eq. of epyrifenacil/g tissue
- ^14C‐Concentration, Liver [1, 21]: 1.647 μg eq. of epyrifenacil/g tissue
- ^14C‐Concentration, Plasma [1, 21]: 0.017 μg eq. of epyrifenacil/g tissue
- ^14C‐Concentration, Kidney [1, 22]: 0.144 ± 0.0794 μg eq. of epyrifenacil/g tissue
- ^14C‐Concentration, Liver [1, 22]: 1.671 ± 1.2478 μg eq. of epyrifenacil/g tissue
- ^14C‐Concentration, Plasma [1, 22]: 0.151 ± 0.0791 μg eq. of epyrifenacil/g tissue
- ^14C‐Concentration, Kidney [1, 23]: 0.144 μg eq. of epyrifenacil/g tissue
- ^14C‐Concentration, Liver [1, 23]: 1.671 μg eq. of epyrifenacil/g tissue
- ^14C‐Concentration, Plasma [1, 23]: 0.151 μg eq. of epyrifenacil/g tissue
- ^14C‐Concentration, Kidney [1, 24]: 0.124 ± 0.0180 μg eq. of epyrifenacil/g tissue
- ^14C‐Concentration, Liver [1, 24]: 6.763 ± 0.1014 μg eq. of epyrifenacil/g tissue
- ^14C‐Concentration, Plasma [1, 24]: 0.092 ± 0.0066 μg eq. of epyrifenacil/g tissue
- ^14C‐Concentration, Kidney [1, 25]: 0.124 μg eq. of epyrifenacil/g tissue
- ^14C‐Concentration, Liver [1, 25]: 6.763 μg eq. of epyrifenacil/g tissue
- ^14C‐Concentration, Plasma [1, 25]: 0.092 μg eq. of epyrifenacil/g tissue
- Liver/plasma ratio of ^14C‐concentration ([1]; female): 41–43
- ^14C‐concentration in liver ([1]; females, co‐administration of RIF 200 mg/kg oral): 0.880 ppm
- ^14C‐concentration in liver ([1]; females, epyrifenacil 1 mg/kg p.o., no inhibitor): 5.136 ± 1.1225 ppm
- Liver/plasma ratio of ^14C‐concentration ([1]; male): 67–97
- ^14C‐concentration in liver ([1]; males, co‐administration of RIF 200 mg/kg oral): 1.671 ppm
- ^14C‐concentration in liver ([1]; males, epyrifenacil 1 mg/kg p.o., no inhibitor, ppm = µg eq. of epyrifenacil/g): 6.763 ± 0.1014 ppm

SMILES: CO[C@H]1/C=C/O[C@@]2(C)Oc3c(C)c(O)c4c(O)c(c(/C=N/N5CCN(C)CC5)c(O)c4c3C2=O)NC(=O)/C(C)=C\C=C\[C@H](C)[C@H](O)[C@@H](C)[C@@H](O)[C@@H](C)[C@H](OC(C)=O)[C@@H]1C [RIF, Rifampicin]
- Uptake of S‐3100‐CA, % of that by vehicle‐treated cells (mouse Oatp1a4): less than 40%
